We go through two molecules from article PMC4762688 (Journal of nuclear medicine : official publication, Society …, 2015).

Entries after “also recorded” stand apart in the source; their conditions may differ. Bridge positions count the residues as written; N and C are the ends. Square brackets hold non-standard residues; d marks the D form. Peptide text beside a SMILES is read from it. * marks the point of attachment. X1 = O=C(O)CN1CCN(CC(=O)O)CCN(C(CCC(=O)NCc2ccc(CN*)cc2)C(=O)O)CC1; NODAGA = O=C(O)CN1CCN(CC(=O)O)CCN(C(CCC(=O)*)C(=O)O)CC1; Tyr(3-Cl) = N[C@@H](Cc1ccc(O)c(Cl)c1)C(=O)O; X3 = NCCN(CCN)CCC(=O)NCc1ccc(CN*)cc1; Hyp = O=C(O)[C@@H]1C[C@@H](O)CN1; X2 = NCCN(CCN)CCC(=O)*

Data set [1] in a line: Blood clearance / pharmacokinetics from serial blood samples.
Data set [2] has as its system thrombus (mural carotid artery thrombosis). Put plainly: Ex vivo biodistribution. The following applies: crush model, biodistribution at 120 minutes.
The test system is the same in data set [3]. Put plainly: PET / SPECT imaging in rat carotid crush injury model. In kind it is in vivo.
The test system of another data set is 125I-labeled thrombus. Kind of data set: Triple-isotope SPECT/PET/CT imaging with 125I-labeled thrombus. The settings on record: ferric chloride model. The data set is classed as in vivo, rat.
Data set [4] has as its target soluble fibrin fragment DD(E) (Homo sapiens, UniProt P02671+P02675+P02679, DEL433-453). The data set is classed as binding. The settings on record: DD(E) assay.
For a further data set, the target named is T1, immobilized fibrin (Homo sapiens, UniProt P02671+P02675+P02679).
T1 sequence (P02671 36-629 limits assumed): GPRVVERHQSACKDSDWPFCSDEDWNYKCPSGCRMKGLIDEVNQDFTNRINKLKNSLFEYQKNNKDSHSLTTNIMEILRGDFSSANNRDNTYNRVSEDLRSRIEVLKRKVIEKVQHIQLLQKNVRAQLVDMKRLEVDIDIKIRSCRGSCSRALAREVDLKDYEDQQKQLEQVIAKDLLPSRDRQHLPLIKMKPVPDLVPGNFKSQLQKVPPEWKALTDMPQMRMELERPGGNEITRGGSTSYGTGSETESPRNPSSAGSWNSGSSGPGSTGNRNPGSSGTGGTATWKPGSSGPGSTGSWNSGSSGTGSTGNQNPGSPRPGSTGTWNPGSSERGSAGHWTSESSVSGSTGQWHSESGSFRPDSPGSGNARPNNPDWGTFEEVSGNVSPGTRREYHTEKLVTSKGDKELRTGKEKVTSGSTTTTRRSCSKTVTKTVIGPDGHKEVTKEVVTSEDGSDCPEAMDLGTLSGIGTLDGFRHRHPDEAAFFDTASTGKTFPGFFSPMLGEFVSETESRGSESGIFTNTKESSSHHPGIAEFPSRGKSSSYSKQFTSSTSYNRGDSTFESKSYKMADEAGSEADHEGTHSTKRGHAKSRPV
T1 sequence (P02675 45-491 limits assumed): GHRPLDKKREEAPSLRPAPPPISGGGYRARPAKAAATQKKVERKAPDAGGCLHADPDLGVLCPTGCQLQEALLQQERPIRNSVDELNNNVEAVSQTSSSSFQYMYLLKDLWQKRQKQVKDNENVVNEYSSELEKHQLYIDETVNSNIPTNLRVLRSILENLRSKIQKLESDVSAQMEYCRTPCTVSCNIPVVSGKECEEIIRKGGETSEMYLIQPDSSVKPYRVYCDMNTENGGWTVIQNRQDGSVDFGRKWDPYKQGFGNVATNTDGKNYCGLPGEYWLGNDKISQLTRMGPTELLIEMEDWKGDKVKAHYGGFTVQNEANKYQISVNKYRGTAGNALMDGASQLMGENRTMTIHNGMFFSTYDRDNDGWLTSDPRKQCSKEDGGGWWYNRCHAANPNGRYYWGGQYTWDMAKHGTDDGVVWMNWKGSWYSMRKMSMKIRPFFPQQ
T1 sequence (P02679 27-437 isoform P02679-2 limits assumed): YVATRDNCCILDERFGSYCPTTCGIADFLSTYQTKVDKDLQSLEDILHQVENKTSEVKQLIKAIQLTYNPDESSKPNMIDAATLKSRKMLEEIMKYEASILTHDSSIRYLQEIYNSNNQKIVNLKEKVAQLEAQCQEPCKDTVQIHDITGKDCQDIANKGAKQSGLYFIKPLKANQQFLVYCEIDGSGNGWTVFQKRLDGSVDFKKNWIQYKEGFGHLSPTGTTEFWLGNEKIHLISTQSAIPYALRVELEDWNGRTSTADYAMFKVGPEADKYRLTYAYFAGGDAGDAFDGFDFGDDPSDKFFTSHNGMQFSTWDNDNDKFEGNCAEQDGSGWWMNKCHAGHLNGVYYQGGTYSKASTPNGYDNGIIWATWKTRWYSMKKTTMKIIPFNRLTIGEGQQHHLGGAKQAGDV
Put plainly: Functional fibrin-binding assay: blood plasma incubated with immobilized fibrin. The following applies: blood samples collected after injection.

As usually defined, the half-life is the time needed for the level to fall by half in the phase considered. Low readings indicate fast loss, high ones slow loss. The molecule `CC[C@H](C)[C@H](NC(=O)[C@H](Cc1c[nH]cn1)NC(=O)[C@@H]1CSSC[C@H](NC(=O)[C@H](Cc2c[nH]cn2)NC(=O)[C@H](Cc2ccccc2)NC(=O)CCN(CCN)CCN)C(=O)N2C[C@H](O)C[C@H]2C(=O)N[C@@H](Cc2ccc(O)c(Cl)c2)C(=O)N[C@@H](CC(=O)O)C(=O)N[C@@H](CC(C)C)C(=O)N1)C(=O)N[C@@H](CC(C)C)C(=O)NCc1ccc(CNC(=O)CCN(CCN)CCN)cc1` [^99mTc-FBP16, metal not drawn] (X2-FHC[Hyp][Tyr(3-Cl)]DLCHIL-X3; disulfide 3-8) returned a half-life in data set [1] (male, Sprague-Dawley, rat, in vivo, iv) of 5.9 ± 16.2 min. The “clearance of radioactivity from blood” value in data set [1] (serial blood draws 0 to 120 minutes p.i.) was “residual radioactivity persisting in the blood even after 120 minutes”. In data set [2], the thrombus uptake result is “low target uptake”. Besides, the “thrombus detection on PET / SPECT images” value in data set [3] is reported as “ineffective”.

Consider `CC[C@H](C)[C@H](NC(=O)[C@H](Cc1c[nH]cn1)NC(=O)[C@@H]1CSSC[C@@H](NC(=O)[C@H](Cc2c[nH]cn2)NC(=O)[C@H](Cc2ccccc2)NC(=O)CCC(C(=O)O)N2CCN(CC(=O)O)CCN(CC(=O)O)CC2)C(=O)N2C[C@H](O)C[C@H]2C(=O)N[C@@H](Cc2ccc(O)c(Cl)c2)C(=O)N[C@@H](CC(=O)O)C(=O)N[C@@H](CC(C)C)C(=O)N1)C(=O)N[C@@H](CC(C)C)C(=O)NCc1ccc(CNC(=O)CCC(C(=O)O)N2CCN(CC(=O)O)CCN(CC(=O)O)CC2)cc1` (stereo partly drawn) [^64Cu-D-Cys-FBP8, metal not drawn] ({NODAGA}-FH[dC][Hyp][Tyr(3-Cl)]DLCHIL-X1; disulfide 3-8), for which the “localization to 125I-labeled thrombus (SPECT/PET)” value in the data set on 125I-labeled thrombus is reported as “did not reveal significant uptake at the target site”. Further, the “thrombus detection on PET / SPECT images” value in data set [3] is recorded as “no uptake in the thrombus”. For the same molecule, in data set [4], the “displacement of the fluorescent probe” value was “no displacement”. Also, the “fibrin binding of blood samples (plasma incubated with immobilized fibrin)” value at immobilized fibrin is on record as “does not bind to fibrin; also recorded: significantly lower binding”.
